Experimental data as given in patent publication US12234257B2, “Triterpene saponin derivative and use thereof” (KOREA INSTITUTE OF SCIENCE AND TECHNOLOGY, priority 2020, dated 2025).

Legend:
[1] = tested on: MPTP-induced in vivo PD model; assay: Wire hanging test; design: species or system mice (C57BL/6j); conditions: MPTP mice
Method: In this study, all animal management and experimental protocols were performed in compliance with guidelines of the Institutional Animal Care and Use Committee of the Korea Institute of Science and Technology. 40 mice (C57BL/6j, male, 8 weeks old) were purchased from SLC Inc. (Shizuoka, Japan). After arrival, every four mice were hosed in each cage (30 cm×18.5 cm×13 cm) and allowed free access to feed and water. All mice were housed under the following constant conditions: lights on from 6:00 to 18:00, a temperature of 23° C.±1° C., and a humidity of 50%±10%. After 7 days of a habituation period, the mice were used in the experiments according to standard protocols. 40 mice were classified into five groups such that eight mice belonged to each group. After the habituation period, all mice were orally administered with a drug every day. […] Each mouse was administered with a single dose of saline/MPTP injection every day for 8 days. […] A time taken for the mouse to fall off the wire was recorded up to 300 seconds. On the day before MPTP administration, the test was performed three times for each mouse, and an average hanging time of three tests was analyzed as an index to evaluate balance, myofunction, and coordination. […] Average latency to fall off the wire onto the bedding material was calculated for each mouse.

[2] = tested on: autophagy-related protein markers including LC3, p62, AMPK, Erk, ULK, and mTOR; assay: Western blot of autophagy-related protein markers in ST and SN of mice; type: in vivo, mice (C57BL/6j); conditions: for expression of p-mTOR in ST / p-mTOR in SN: MPTP mice; for expression of p-ULK: ST and SN, vs MPTP
Method: 40 mice were classified into five groups such that eight mice belonged to each group. After the habituation period, all mice were orally administered with a drug every day. While the mice of Groups 1 and 2 were administered with saline (p.o.), the mice of Groups 3, 4, and 5 were administered with 5 mg/kg ropinirole (p.o.), 5 mg/kg AKNS-2 (p.o.), and 15 mg/kg AKNS-2 (p.o.), respectively. From the 5th day therefrom, the mice of Group 1 were intraperitoneally administered with a saline at 1 hour after gavage feeding of saline, and the mice of Groups 2, 3, 4, and 5 were administered with 30 mg/kg MPTP (i.p.) at 1 hour after gavage feeding of saline, ropinirole, AKNS-2 (5 mg/kg), and AKNS-2 (15 mg/kg), respectively. Each mouse was administered with a single dose of saline/MPTP injection every day for 8 days. At 7 days after the final MPTP injection, all mice were sacrificed by cervical dislocation, and then the whole brain, SNpc, and striatum (ST) were excised for biochemical analysis.
On the 7th day after the last administration of MPTP, SNpc and ST of each mouse were carefully excised and stored at −80° C. until use. Thereafter, brain tissue of SNpc and ST was homogenized in a PRO-PREP™ lysis buffer (iNtRON, Gyeonggi, Korea) containing a phosphatase inhibitor cocktail set I (Sigma-Aldrich, Mo., USA). After shaking at 4° C. for 30 minutes, homogenates were centrifuged at 4° C. at 13000×g for 20 minutes, and a supernatant obtained therefrom was collected and added to a new 1.5 mL tube. A concentration of proteins contained in the supernatant was measured by the Bradford method. A part of the supernatant was mixed with the same volume of a loading buffer and denatured in a heater at 99° C. for 5 minutes for western blot analysis. The remaining supernatant was stored at −80° C. for subsequent tests for MAO-B activity and DA level using an ELISA kit.
Protein markers contained in lysates of the SH-SY5Y cells and brain tissue of the mice (SNpc and ST) were measured by western blot analysis. […] Then, proteins separated on the gel were transferred to a polyvinylidene fluoride (PVDF) membrane for 45 minutes using a Trans-Blot Turbo Transfer System (Bio-Rad, USA). The membrane was washed with tris-buffered saline with 0.1% Tween 20, TBST) for 5 minutes and then blocked by 5% skim milk dissolved in a TBST buffer. The membrane was further incubated with monoclonal primary antibodies derived from rabbits (anti-GAPDH, anti-AMPK, anti-p-AMPK, anti-ULK, anti-p-ULK555, anti-Erk, anti-p-Erk, anti-mTOR, anti-p-mTOR, anti-LC3B, anti-TH, and anti-α-synuclein antibodies). The primary antibodies were diluted in a blocking buffer at a ratio of 1:1000 and incubated overnight at 4° C. On the second day, the membrane was washed with TBST three times (10 minutes each) and incubated at room temperature in a horseradish peroxidase-conjugated goat anti-rabbit IgG secondary antibody (diluted in a blocking buffer at a ratio of 1:2000). After incubating in the secondary antibody for 1 hour, the membrane was washed for 30 minutes. The protein blots on the membrane were developed using an ECL detection kit and visualized using an LAS-4000 mini system (Fujifilm, Japan). The intensity of the protein blots was quantified using Multi Gauge software (Fujifilm, Japan).

[3] = 15 mg/kg p.o., vs MPTP treatment
[4] = both ST and SN, vs MPTP treatment

C[C@@H]1O[C@@H](O[C@@H]2[C@@H](O)[C@H](O[C@@H]3[C@@H](O[C@@H]4OC[C@@H](O)[C@H](O)[C@H]4O)[C@@H](O)[C@H](O[C@H]4[C@H](OC(=O)[C@]56CCC(C)(C)C[C@H]5C5=CC[C@@H]7[C@@]8(C)C[C@H](O)[C@H](O[C@@H]9O[C@H](CO)[C@@H](O)[C@H](O[C@@H]%10OC[C@@H](O)[C@H](O)[C@H]%10O)[C@H]9O)[C@@](C)(CO)[C@@H]8CC[C@@]7(C)[C@]5(C)C[C@H]6O)OC[C@H](O)[C@@H]4O)O[C@H]3C)OC[C@H]2O)[C@H](O)[C@H](O)[C@H]1O [Compound 1, 3-O-β-D-xylopyranosyl-(1→3)-β-D-glucopyranosylpolygalacic acid 28-O-α-L-rhamnopyranosyl-(1→3)-β-D-xylopyranosyl-(1→4)-[β-D-xylopyranosyl-(1→3)]-α-L-rhamnopyranosyl-(1→2)-α-L-arabinopyranosyl ester]
behavior performance in wire hanging test ([1]; 15 mg/kg p.o., 2 hours and 24 hours): impaired behavior performance was significantly improved | expression of LC3-II in SN [2, 3]: Although no noticeable difference was observed, increased expression of LC3-II was observed in SN | expression of LC3-II in ST [2, 3]: induced a significant increase in the expression of LC3-II in ST | expression of p-mTOR in ST [2]: clearly showed a tendency to decrease the expression of p-mTOR in ST | p-mTOR in SN [2]: a significant decrease in p-mTOR | expression of p-ULK ([2]; 5 mg/kg and 15 mg/kg p.o.): significantly increased the expression of p-ULK in ST and SN | p62 levels ([2]; both ST and SN, 5 mg/kg and 15 mg/kg p.o., vs MPTP-treated group): significantly decreased p62 levels | expression of p-Erk ([2]; both ST and SN, 15 mg/kg p.o., vs MPTP treatment): significantly increased | p-AMPK [2, 4]: induced a significant increase in p-AMPK in both ST and SN

CCCN(CCC)CCc1cccc2c1CC(=O)N2 [ropinirole, reference compound]
latency to fall off in wire hanging test ([1]; 5 mg/kg p.o., 2 hours): improved latency deteriorated by MPTP | expression of p-mTOR in ST [2]: clearly showed a tendency to decrease the expression of p-mTOR in ST | p-mTOR in SN [2]: a significant decrease in p-mTOR | expression of p-ULK ([2]; ropinirole): significantly increased the expression of p-ULK in ST and SN | p-AMPK [2, 4]: induced a significant increase in p-AMPK in both ST and SN
